target: T1, human Werner helicase (WRN-BV08, Uniprot Q14191, amino acids 517-1235 with L1074F point mutation) (Homo sapiens, UniProt Q14191, L1074F); assay: WRN (BV08) ADP-Glo Assay; format: biochemical; conditions: 0.15 nM WRN, 5 μM ATP, 0.1 nM DNA duplex, 15 min preincubation, 60 min at 25° C., pH 7.5, 1% DMSO; read-out: ADP-Glo_hWRN_IC50
T1 construct: Uniprot Q14191, amino acids 517-1235 with L1074F point mutation; TEV-cleavable 8×His (C, cleaved yes); made in house; host or cells: Sf9 insect cells (baculovirus)
T1 sequence (Q14191 with tags, fused parts or gaps L1074F limits assumed): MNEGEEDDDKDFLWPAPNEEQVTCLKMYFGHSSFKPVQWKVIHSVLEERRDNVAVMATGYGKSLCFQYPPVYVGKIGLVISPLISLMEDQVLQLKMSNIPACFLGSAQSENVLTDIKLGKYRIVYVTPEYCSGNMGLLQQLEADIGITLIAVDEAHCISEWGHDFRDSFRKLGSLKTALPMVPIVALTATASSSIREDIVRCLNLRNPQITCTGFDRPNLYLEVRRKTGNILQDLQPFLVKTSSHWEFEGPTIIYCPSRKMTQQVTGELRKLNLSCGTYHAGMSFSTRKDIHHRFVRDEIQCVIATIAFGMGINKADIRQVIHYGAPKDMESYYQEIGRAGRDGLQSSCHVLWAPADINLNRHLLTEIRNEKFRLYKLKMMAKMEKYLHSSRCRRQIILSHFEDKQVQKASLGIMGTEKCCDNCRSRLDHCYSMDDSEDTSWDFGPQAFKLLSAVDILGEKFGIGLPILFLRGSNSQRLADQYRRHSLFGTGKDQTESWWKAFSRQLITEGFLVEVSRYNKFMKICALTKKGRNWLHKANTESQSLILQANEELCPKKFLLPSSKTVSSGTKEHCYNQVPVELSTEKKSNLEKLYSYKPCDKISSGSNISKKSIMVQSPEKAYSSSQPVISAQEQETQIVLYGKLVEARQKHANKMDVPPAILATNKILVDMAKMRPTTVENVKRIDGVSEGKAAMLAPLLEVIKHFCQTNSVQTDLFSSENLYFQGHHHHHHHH
Method in brief: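 Percent inhibition was normalised to DMSO (max) and 20 μM NSC-617145 (min) controls from ADP-Glo luminescence, and IC50 values came from a four-parameter fit. The reaction ran 60 min at 25 °C with 0.15 nM WRN, 5 μM ATP and 0.1 nM duplex DNA.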

With `COC(C(=O)N(Cc1ccccc1)C1C=CS(=O)(=O)C1)c1ccc(-n2cccc2)cc1` (stereo not shown) [I-337, N-benzyl-N-(1,1-dioxo-2,3-dihydro-1lambda6-thiophen-3-yl)-2-methoxy-2-[4-(1H-pyrrol-1-yl)phenyl]acetamide] as the compound, how does the IC50 read?
Its IC50 is 10 to 50 µM.

How did the IC50 turn out when `O=C(Cc1ccc(-c2cccs2)cc1)N(Cc1ccncc1)C1C=CS(=O)(=O)C1` (stereo not shown) [I-338, N-(1,1-dioxo-2,3-dihydro-1lambda6-thiophen-3-yl)-N-[(pyridin-4-yl)methyl]-2-[4-(thiophen-2-yl)phenyl]acetamide] was run?
The IC50 was 10 to 50 µM.

With `CSc1ccc(CC(=O)N(Cc2ccncc2)C2C=CS(=O)(=O)C2)cc1` (stereo not shown) [I-339, N-(1,1-dioxo-2,3-dihydro-1lambda6-thiophen-3-yl)-2-[4-(methylsulfanyl)phenyl]-N-[(pyridin-4-yl)methyl]acetamide] as the compound, how does the IC50 read?
Its IC50 is 10 to 50 µM.

For `O=C(Cc1ccc(-c2ccccc2)cn1)N(Cc1ccccc1)C1C=CS(=O)(=O)C1` (stereo not shown) [I-341, N-benzyl-N-(1,1-dioxo-2,3-dihydro-1lambda6-thiophen-3-yl)-2-(5-phenylpyridin-2-yl)acetamide], which IC50 is on record?
Its IC50 is 10 to 50 µM.

`O=C(Cc1ccc(-n2cccc2)cc1)N(Cc1noc(C2CC2)n1)C1C=CS(=O)(=O)C1` (stereo not shown) [I-342, N-[(5-cyclopropyl-1,2,4-oxadiazol-3-yl)methyl]-N-(1,1-dioxo-2,3-dihydro-1lambda6-thiophen-3-yl)-2-[4-(1H-pyrrol-1-yl)phenyl]acetamide] was tested. Which IC50 did it give?
The IC50 was 10 to 50 µM.

For `COc1cc(CN(C(=O)CCc2ccc(S(F)(F)(F)(F)F)cc2)C2C=CS(=O)(=O)C2)ccn1` (stereo not shown) [I-343, N-(1,1-dioxo-2,3-dihydro-1lambda6-thiophen-3-yl)-N-[(2-methoxypyridin-4-yl)methyl]-3-[4-(pentafluoro-lambda6-sulfanyl)phenyl]propanamide], which IC50 is on record?
The IC50 was 10 to 50 µM.

How did the IC50 turn out when `CS(=O)(=O)Nc1cccc(CN(C(=O)Cc2ccc(-n3cccc3)cc2)C2C=CS(=O)(=O)C2)c1` (stereo not shown) [I-344, N-(1,1-dioxo-2,3-dihydro-1lambda6-thiophen-3-yl)-N-[(3-methanesulfonamidophenyl)methyl]-2-[4-(1H-pyrrol-1-yl)phenyl]acetamide] was run?
The IC50 was 10 to 50 µM.

How did the IC50 turn out when `COc1cc(-c2ccc(F)cc2)ccc1CC(=O)N(Cc1ccncc1)C1C=CS(=O)(=O)C1` (stereo not shown) [I-345, N-(1,1-dioxo-2,3-dihydro-1lambda6-thiophen-3-yl)-2-{4′-fluoro-3-methoxy-[1,1′-biphenyl]-4-yl}-N-[(pyridin-4-yl)methyl]acetamide] was run?
Its IC50 is 10 to 50 µM.

With `O=C(Cc1ccc(C23CC(C2)C3)cc1)N(Cc1ccncc1)C1C=CS(=O)(=O)C1` (stereo not shown) [I-347, 2-(4-{bicyclo[1.1.1]pentan-1-yl}phenyl)-N-(1,1-dioxo-2,3-dihydro-1lambda6-thiophen-3-yl)-N-[(pyridin-4-yl)methyl]acetamide] as the compound, how does the IC50 read?
Its IC50 is 10 to 50 µM.

`N#Cc1cc(F)ccc1-c1ccc(CC(=O)N(Cc2ccncc2)C2C=CS(=O)(=O)C2)cc1` (stereo not shown) [I-348, 2-{2′-cyano-4′-fluoro-[1,1′-biphenyl]-4-yl}-N-(1,1-dioxo-2,3-dihydro-1lambda6-thiophen-3-yl)-N-[(pyridin-4-yl)methyl]acetamide] was tested. Which IC50 did it give?
The IC50 was 10 to 50 µM.

With `O=C(Cn1nc(-c2ccc(F)cc2)oc1=O)N(Cc1ccncc1)C1C=CS(=O)(=O)C1` (stereo not shown) [I-349, N-(1,1-dioxo-2,3-dihydro-1lambda6-thiophen-3-yl)-2-[5-(4-fluorophenyl)-2-oxo-2,3-dihydro-1,3,4-oxadiazol-3-yl]-N-[(pyridin-4-yl)methyl]acetamide] as the compound, how does the IC50 read?
Its IC50 is 10 to 50 µM.

How did the IC50 turn out when `O=C(Cc1ccc(-c2ccc(F)cc2)cc1CO)N(Cc1ccncc1)C1C=CS(=O)(=O)C1` (stereo not shown) [I-350, N-(1,1-dioxo-2,3-dihydro-1lambda6-thiophen-3-yl)-2-[4′-fluoro-3-(hydroxymethyl)-[1,1′-biphenyl]-4-yl]-N-[(pyridin-4-yl)methyl]acetamide] was run?
The IC50 was 10 to 50 µM.

With `O=C(Cc1ccc(S(=O)(=O)C(F)F)cc1)N(Cc1ccncc1)C1C=CS(=O)(=O)C1` (stereo not shown) [I-351, 2-(4-difluoromethanesulfonylphenyl)-N-(1,1-dioxo-2,3-dihydro-1lambda6-thiophen-3-yl)-N-[(pyridin-4-yl)methyl]acetamide] as the compound, how does the IC50 read?
Its IC50 is 10 to 50 µM.

How did the IC50 turn out when `O=C(O)c1cccc(CN(C(=O)Cc2ccc(-n3cccc3)cc2)C2C=CS(=O)(=O)C2)c1` (stereo not shown) [I-352, 3-{[N-(1,1-dioxo-2,3-dihydro-1lambda6-thiophen-3-yl)-2-[4-(1H-pyrrol-1-yl)phenyl]acetamido]methyl}benzoic acid] was run?
Its IC50 is 10 to 50 µM.

For `O=C(Cc1cc(-c2ccccc2)on1)N(Cc1ccncc1)C1C=CS(=O)(=O)C1` (stereo not shown) [I-354, N-(1,1-dioxo-2,3-dihydro-1lambda6-thiophen-3-yl)-2-(5-phenyl-1,2-oxazol-3-yl)-N-[(pyridin-4-yl)methyl]acetamide], which IC50 is on record?
The IC50 was 10 to 50 µM.

With `Cc1ccn(-c2ccc(CC(=O)N(Cc3ccncc3)C3C=CS(=O)(=O)C3)cc2)c1` (stereo not shown) [I-355, N-(1,1-dioxo-2,3-dihydro-1lambda6-thiophen-3-yl)-2-[4-(3-methyl-1H-pyrrol-1-yl)phenyl]-N-[(pyridin-4-yl)methyl]acetamide] as the compound, how does the IC50 read?
Its IC50 is 10 to 50 µM.

`COC(C(=O)N(Cc1ccncc1)C1C=CS(=O)(=O)C1)c1ccc(-c2ccc(C)cc2)cc1` (stereo not shown) [I-356, N-(1,1-dioxo-2,3-dihydro-1lambda6-thiophen-3-yl)-2-methoxy-2-{4′-methyl-[1,1′-biphenyl]-4-yl}-N-[(pyridin-4-yl)methyl]acetamide] was tested. Which IC50 did it give?
Its IC50 is 10 to 50 µM.

With `COCC(C(=O)N(Cc1ccnc(OC)c1)C1C=CS(=O)(=O)C1)n1cc(-c2ccccc2)cn1` (stereo not shown) [I-357, N-(1,1-dioxo-2,3-dihydro-1lambda6-thiophen-3-yl)-3-methoxy-N-[(2-methoxypyridin-4-yl)methyl]-2-(4-phenyl-1H-pyrazol-1-yl)propanamide] as the compound, how does the IC50 read?
Its IC50 is 10 to 50 µM.

Which IC50 does the source give for `O=C(Cc1ccc(-n2cccc2)cc1)N(Cc1cccnc1)C1C=CS(=O)(=O)C1` (stereo not shown) [I-358, N-(1,1-dioxo-2,3-dihydro-1lambda6-thiophen-3-yl)-N-[(pyridin-3-yl)methyl]-2-[4-(1H-pyrrol-1-yl)phenyl]acetamide] here?
The IC50 was 10 to 50 µM.

For `O=C(Cc1ccc(C2CC(F)(F)C2)cc1)N(Cc1ccncc1)C1C=CS(=O)(=O)C1` (stereo not shown) [I-359, 2-[4-(3,3-difluorocyclobutyl)phenyl]-N-(1,1-dioxo-2,3-dihydro-1lambda6-thiophen-3-yl)-N-[(pyridin-4-yl)methyl]acetamide], which IC50 is on record?
The IC50 was 10 to 50 µM.

How did the IC50 turn out when `O=C(Cc1ccc(-n2cccc2)cc1)N(Cc1ccccc1CO)C1C=CS(=O)(=O)C1` (stereo not shown) [I-360, N-(1,1-dioxo-2,3-dihydro-1lambda6-thiophen-3-yl)-N-{[2-(hydroxymethyl)phenyl]methyl}-2-[4-(1H-pyrrol-1-yl)phenyl]acetamide] was run?
The IC50 was 10 to 50 µM.

Which IC50 does the source give for `O=C(Cc1ccc(-n2cccc2)cc1)N(Cc1ccc2nccn2c1)C1C=CS(=O)(=O)C1` (stereo not shown) [I-361, N-(1,1-dioxo-2,3-dihydro-1lambda6-thiophen-3-yl)-N-({imidazo[1,2-a]pyridin-6-yl}methyl)-2-[4-(1H-pyrrol-1-yl)phenyl]acetamide] here?
Its IC50 is 10 to 50 µM.

Which IC50 does the source give for `COc1cc(CN(C(=O)Cc2ccc(-c3cscn3)cc2F)C2C=CS(=O)(=O)C2)ccn1` (stereo not shown) [I-363, N-(1,1-dioxo-2,3-dihydro-1lambda6-thiophen-3-yl)-2-[2-fluoro-4-(1,3-thiazol-4-yl)phenyl]-N-[(2-methoxypyridin-4-yl)methyl]acetamide] here?
Its IC50 is 10 to 50 µM.

`Cc1cccn1-c1ccc(CC(=O)N(Cc2cncnc2)C2C=CS(=O)(=O)C2)c(F)c1` (stereo not shown) [I-364, N-(1,1-dioxo-2,3-dihydro-1lambda6-thiophen-3-yl)-2-[2-fluoro-4-(2-methyl-1H-pyrrol-1-yl)phenyl]-N-[(pyrimidin-5-yl)methyl]acetamide] was tested. Which IC50 did it give?
Its IC50 is 10 to 50 µM.

For `CC(C)Oc1ccc(CC(=O)N(Cc2ccncc2)C2C=CS(=O)(=O)C2)cc1` (stereo not shown) [I-365, N-(1,1-dioxo-2,3-dihydro-1lambda6-thiophen-3-yl)-2-[4-(propan-2-yloxy)phenyl]-N-[(pyridin-4-yl)methyl]acetamide], which IC50 is on record?
Its IC50 is 10 to 50 µM.

For `O=C(Cc1ccc(C(F)(F)F)nc1)N(Cc1ccncc1)C1C=CS(=O)(=O)C1` (stereo not shown) [I-367, N-(1,1-dioxo-2,3-dihydro-1lambda6-thiophen-3-yl)-N-[(pyridin-4-yl)methyl]-2-[6-(trifluoromethyl)pyridin-3-yl]acetamide], which IC50 is on record?
Its IC50 is 10 to 50 µM.

With `O=C(CCc1c[nH]c2cc(F)ccc12)N(Cc1ccncc1)C1C=CS(=O)(=O)C1` (stereo not shown) [I-368, N-(1,1-dioxo-2,3-dihydro-1lambda6-thiophen-3-yl)-3-(6-fluoro-1H-indol-3-yl)-N-[(pyridin-4-yl)methyl]propanamide] as the compound, how does the IC50 read?
The IC50 was 10 to 50 µM.

For `O=C(Cc1ccc(-n2cccc2)cc1)N(Cc1ccc[nH]c1=O)C1C=CS(=O)(=O)C1` (stereo not shown) [I-369, N-(1,1-dioxo-2,3-dihydro-1lambda6-thiophen-3-yl)-N-[(2-oxo-1,2-dihydropyridin-3-yl)methyl]-2-[4-(1H-pyrrol-1-yl)phenyl]acetamide], which IC50 is on record?
The IC50 was 10 to 50 µM.

How did the IC50 turn out when `O=C(Cc1ccc(-c2nn[nH]n2)cc1)N(Cc1ccncc1)C1C=CS(=O)(=O)C1` (stereo not shown) [I-370, N-(1,1-dioxo-2,3-dihydro-1lambda6-thiophen-3-yl)-N-[(pyridin-4-yl)methyl]-2-[4-(2H-1,2,3,4-tetrazol-5-yl)phenyl]acetamide] was run?
Its IC50 is > 50 µM.

How did the IC50 turn out when `O=C(Cc1nc(C(F)(F)F)cs1)N(Cc1ccncc1)C1C=CS(=O)(=O)C1` (stereo not shown) [I-371, N-(1,1-dioxo-2,3-dihydro-1lambda6-thiophen-3-yl)-N-[(pyridin-4-yl)methyl]-2-[4-(trifluoromethyl)-1,3-thiazol-2-yl]acetamide] was run?
The IC50 was > 50 µM.

How did the IC50 turn out when `O=C(Cc1ccc(-n2cccc2)cc1)N(Cc1ccccc1N1CCC(O)C1)C1C=CS(=O)(=O)C1` (stereo not shown) [I-372, N-(1,1-dioxo-2,3-dihydro-1lambda6-thiophen-3-yl)-N-{[2-(3-hydroxypyrrolidin-1-yl)phenyl]methyl}-2-[4-(1H-pyrrol-1-yl)phenyl]acetamide] was run?
The IC50 was > 50 µM.
